Assays:
Type in all cases: in vivo
[1] = system: Kochia (Kochia scoparia); assay: Test A preemergence; details: Bassia scoparia, pre-emergence, 240 h, Preemergence
How it was run: (§1)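 Ratings of 0 (no effect) to 100 (complete control) come from visual comparison with untreated controls roughly 10 d after treatment. Test chemicals, formulated in a non-phytotoxic solvent mixture with surfactant, were applied either as a preemergence directed soil spray on seeded soil or postemergence to one- to two-leaf plants 2 to 10 cm tall.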

[2] = system: barnyardgrass (Echinochloa crus-galli); assay: Test A preemergence; details: Echinochloa crus-galli, pre-emergence, 240 h, Preemergence
How it was run: as §1

[3] = system: pigweed (Amaranthus retroflexus); assay: Test A preemergence; details: Amaranthus retroflexus, pre-emergence, 240 h, Preemergence
[4] = system: ragweed (common ragweed, Ambrosia elatior); assay: Test A preemergence; details: Ambrosia artemisiifolia, pre-emergence, 240 h, Preemergence
How it was run: as §1

[5] = system: ryegrass, Italian (Italian ryegrass, Lolium multiflorum); assay: Test A preemergence; details: Lolium multiflorum, pre-emergence, 240 h, Preemergence
How it was run: as §1

[6] = system: Galium (catchweed bedstraw, Galium aparine); assay: Test A postemergence; details: Galium, post-emergence, 240 h, Postemergence, read-out: Galium plant response rating (0 to 100 scale)
How it was run: as §1

[7] = system: Kochia (Kochia scoparia); assay: Test A postemergence; details: Bassia scoparia, post-emergence, 240 h, Postemergence, read-out: Kochia plant response rating (0 to 100 scale)
How it was run: as §1

[8] = system: barnyardgrass (Echinochloa crus-galli); assay: Test A postemergence; details: Echinochloa crus-galli, post-emergence, 240 h, Postemergence
How it was run: as §1

[9] = system: blackgrass (Alopecurus myosuroides); assay: Test A postemergence; details: Alopecurus myosuroides, post-emergence, 240 h, Postemergence, read-out: Blackgrass plant response rating (0 to 100 scale)
How it was run: as §1

[10] = system: corn (Zea mays); assay: Test A postemergence; details: Zea mays, post-emergence, 240 h, Postemergence, read-out: Corn plant response rating (0 to 100 scale)
How it was run: as §1

[11] = system: giant foxtail (Setaria faberii); assay: Test A postemergence; details: Setaria faberi, post-emergence, 240 h, Postemergence, read-out: Foxtail, Giant plant response rating (0 to 100 scale)
How it was run: as §1

[12] = system: pigweed (Amaranthus retroflexus); assay: Test A postemergence; details: Amaranthus retroflexus, post-emergence, 240 h, Postemergence, read-out: Pigweed plant response rating (0 to 100 scale)
How it was run: as §1

[13] = system: ragweed (common ragweed, Ambrosia elatior); assay: Test A postemergence; details: Ambrosia artemisiifolia, post-emergence, 240 h, Postemergence, read-out: Ragweed plant response rating (0 to 100 scale)
How it was run: as §1

[14] = system: ryegrass, Italian (Italian ryegrass, Lolium multiflorum); assay: Test A postemergence; details: Lolium multiflorum, post-emergence, 240 h, Postemergence, read-out: Ryegrass, Italian plant response rating (0 to 100 scale)
How it was run: as §1

[15] = system: wheat (Triticum aestivum); assay: Test A postemergence; details: Triticum aestivum, post-emergence, 240 h, Postemergence, read-out: Wheat plant response rating (0 to 100 scale)
How it was run: as §1

[16] = 125 g ai/ha, visual rating about 10 d after treatment
[17] = 31 g ai/ha, 0 is no effect, 100 is complete control

Question: Which pest or weed control at 31 g/ha ([1]; 31 g ai/ha, 0 to 100 scale where 0 is no effect and 100 is complete control, read-out: Kochia plant response rating) does the source give for `CN1C[C@H](c2csc3c2CCC(F)(F)C3)[C@@H](C(=O)Nc2ccccc2S(C)(=O)=O)C1=O` (racemic) [Compound 1367] here?
Answer: 0%

Question: What about the pest or weed control at 125 g/ha ([1]; 125 g ai/ha, 0 to 100 scale (0 no effect, 100 complete control), read-out: Plant response rating, Kochia) of the same compound?
Answer: 0%

Question: What about the pest or weed control at 31 g/ha ([2]; 31 g ai/ha, 0 to 100 scale where 0 is no effect and 100 is complete control, read-out: Barnyardgrass plant response rating) of the same compound?
Answer: 0%

Question: And the pest or weed control at 125 g/ha ([2]; 125 g ai/ha, 0 to 100 scale (0 no effect, 100 complete control), read-out: Plant response rating, Barnyardgrass)?
Answer: 80%

Question: What about the pest or weed control at 31 g/ha ([3]; 31 g ai/ha, 0 to 100 scale where 0 is no effect and 100 is complete control, read-out: Pigweed plant response rating) of the same compound?
Answer: 0%

Question: And the pest or weed control at 125 g/ha ([3]; 125 g ai/ha, 0 to 100 scale (0 no effect, 100 complete control), read-out: Plant response rating, Pigweed)?
Answer: 0%

Question: And the pest or weed control at 31 g/ha ([4]; 31 g ai/ha, 0 to 100 scale where 0 is no effect and 100 is complete control, read-out: Ragweed plant response rating)?
Answer: 0%

Question: And the pest or weed control at 125 g/ha ([4]; 125 g ai/ha, 0 to 100 scale (0 no effect, 100 complete control), read-out: Plant response rating, Ragweed)?
Answer: 0%

Question: What about the pest or weed control at 31 g/ha ([5]; 31 g ai/ha, 0 to 100 scale where 0 is no effect and 100 is complete control, read-out: Ryegrass, Italian plant response rating) of the same compound?
Answer: 0%

Question: And the pest or weed control at 125 g/ha ([5]; 125 g ai/ha, 0 to 100 scale (0 no effect, 100 complete control), read-out: Plant response rating, Ryegrass, Italian)?
Answer: 0%

Question: What about the pest or weed control at 125 g/ha [6, 16] of the same compound?
Answer: 0%

Question: And the pest or weed control at 31 g/ha [6, 17]?
Answer: 0%

Question: What about the pest or weed control at 125 g/ha [7, 16] of the same compound?
Answer: 0%

Question: And the pest or weed control at 31 g/ha [7, 17]?
Answer: 0%

Question: What about the pest or weed control at 125 g/ha ([8]; 125 g ai/ha, visual rating about 10 d after treatment, read-out: Barnyardgrass plant response rating (0 to 100 scale, 0 no effect, 100 complete control)) of the same compound?
Answer: 30%

Question: And the pest or weed control at 31 g/ha ([8]; 31 g ai/ha, 0 is no effect, 100 is complete control, read-out: Barnyardgrass plant response rating (0 to 100 scale))?
Answer: 0%

Question: What about the pest or weed control at 125 g/ha [9, 16] of the same compound?
Answer: 0%

Question: And the pest or weed control at 31 g/ha [9, 17]?
Answer: 0%

Question: And the plant injury at 125 g/ha [10, 16]?
Answer: 0%

Question: What about the plant injury at 31 g/ha [10, 17] of the same compound?
Answer: 0%

Question: And the pest or weed control at 125 g/ha [11, 16]?
Answer: 30%

Question: What about the pest or weed control at 31 g/ha [11, 17] of the same compound?
Answer: 0%

Question: What about the pest or weed control at 125 g/ha [12, 16] of the same compound?
Answer: 20%

Question: What about the pest or weed control at 31 g/ha [12, 17] of the same compound?
Answer: 0%

Question: And the pest or weed control at 125 g/ha [13, 16]?
Answer: 0%

Question: And the pest or weed control at 31 g/ha [13, 17]?
Answer: 0%

Question: What about the pest or weed control at 125 g/ha [14, 16] of the same compound?
Answer: 0%

Question: What about the pest or weed control at 31 g/ha [14, 17] of the same compound?
Answer: 0%

Question: And the plant injury at 125 g/ha [15, 16]?
Answer: 0%

Question: What about the plant injury at 31 g/ha [15, 17] of the same compound?
Answer: 0%

Reference: US12077503B2, “Substituted cyclic amides and their use as herbicides” (FMC CORPORATION, priority 2015, dated 2024)
